Test results reported in US6362218B1, “Brefeldin A derivatives” (Purdue Research Foundation, priority 1997, dated 2002).
In brackets after ≈: the same amount, converted by molar mass. Several values for one entry are separate records, joined by “and”; a condition that tells them apart may be missing. Equal entries are not always repeated.

Key:
[1] = system: OVCAR-3; experiment: NCI human cancer cell line screen, antiproliferative activity, Ovarian OVCAR-3; format: cell-based; details: concentration corresponding to 50% growth inhibition, read-out: cytotoxicity GI50, Ovarian OVCAR-3
Description: (§1) The new synthesized brefeldin A prodrug candidates and analogs were examined for antiproliferative activity against human cancer cell lines in the National Cancer Institute screen, in which the activity of each compound was evaluated with approximately 55 different cancer cell lines of diverse tumor origins.

[2] = system: SN12C; experiment: NCI human cancer cell line screen, antiproliferative activity, Renal SN12C; format: cell-based; details: concentration corresponding to 50% growth inhibition, read-out: cytotoxicity GI50, Renal SN12C
Description: as §1

[3] = system: all human cancer cell lines successfully tested; experiment: NCI screen, mean graph midpoint over approximately 55 cancer cell lines; format: cell-based; details: average GI50 for all cell lines tested (approximately 55), test range 10^-4 to 10^-8 molar
Description: as §1

[4] = Solubility of saturated solutions in distilled water, gravimetric; details: distilled water at room temperature, saturated solution
[5] = system: SF-539; experiment: NCI human cancer cell line screen, antiproliferative activity, CNS SF-539; format: cell-based; details: concentration corresponding to 50% growth inhibition, read-out: cytotoxicity GI50, CNS SF-539
Description: as §1

[6] = system: MDA-MB-435; experiment: NCI human cancer cell line screen, antiproliferative activity, Breast MDA-MB-435; format: cell-based; details: concentration corresponding to 50% growth inhibition, read-out: cytotoxicity GI50, Breast MDA-MB-435
Description: as §1

[7] = system: DU-145; experiment: NCI human cancer cell line screen, antiproliferative activity, Prostate DU-145; format: cell-based; details: concentration corresponding to 50% growth inhibition, read-out: cytotoxicity GI50, Prostate DU-145
Description: as §1

[8] = system: UACC-62; experiment: NCI human cancer cell line screen, antiproliferative activity, Melanoma UACC-62; format: cell-based; details: concentration corresponding to 50% growth inhibition, read-out: cytotoxicity GI50, Melanoma UACC-62
Description: as §1

[9] = system: HOP-62; experiment: NCI human cancer cell line screen, antiproliferative activity, Lung HOP-62; format: cell-based; details: concentration corresponding to 50% growth inhibition, read-out: cytotoxicity GI50, Lung HOP-62
Description: as §1

[10] = system: HCT-116; experiment: NCI human cancer cell line screen, antiproliferative activity, Colon HCT-116; format: cell-based; details: concentration corresponding to 50% growth inhibition, read-out: cytotoxicity GI50, Colon HCT-116
Description: as §1

Compound	GI50 [1]	GI50 [2]	MGM (mean graph midpoint for growth inhibition) [3]	solubility [4]	GI50 [5]	GI50 [6]	GI50 [7]	GI50 [8]	GI50 [9]	GI50 [10]	MGM (mean graph midpoint for growth inhibition) ([3]; listed as brefeldin A)
CC1CCCC=CC2CC(O)CC2C(O)C(SCCO)CC(=O)O1 [Compound 5, 2,3-Dihydro-(3R)-(2′-hydroxyethylthio)brefeldin A]	27 µM	33 µM	20 µM	12 mg/mL (≈ 33.5 mM)	23 µM	34 µM	30 µM	40 µM	34 µM	19 µM	
COC(=O)CSC1CC(=O)OC(C)CCCC=CC2CC(O)CC2C1O [Compound 7, 2,3-Dihydro-(3R)-(methoxycarbonylmethylthiol)brefeldin A]	27 µM	32 µM	17 µM		24 µM	30 µM	30 µM		28 µM	19 µM	
COC(=O)CS(=O)(=O)[C@@H]1CC(=O)OC(C)CCCC=CC2CC(O)CC2C1O (stereo partly drawn) [Compound 27, 2,3-Dihydro(3R)-(methoxycarbonylmethylsulfonyl)brefeldin A]	3.2 µM		3.5 µM			5.5 µM	6 µM	5 µM	5.1 µM	3.7 µM	
Brefeldin A 8 0-Glutarate [Compound 23]	20 µM	32 µM	13 µM		22 µM	11 µM	30 µM		33 µM	21 µM	
CC1CCCC=CC2CC(O)CC2C(O)[C@H](Sc2ccc(O)cc2)CC(=O)O1 (stereo partly drawn) [Compound 3, 2,3-Dihydro-(3R)-(4′-hydroxyphenylthio)brefeldin A]	2.4 µM	4.4 µM	3.2 µM		5.1 µM		6.3 µM	4.8 µM	3.2 µM	2.5 µM	
CC1CCCC=CC2CC(O)CC2C(O)[C@H]([S+]([O-])CCN)CC(=O)O1 (stereo partly drawn) [Compound 18, 2,3-Dihydro-(3R)-(2′-aminoethylsulfinyl)brefeldin A]	0.082 µM	0.12 µM	0.055 µM		0.02 µM	0.055 µM	0.17 µM	0.021 µM	0.15 µM	0.086 µM	
CC1CCCC=CC2CC(O)CC2C(O)C(SCCN(C)C)CC(=O)O1 [Compound 4, 2,3-Dihydro-(3R)-(2′-N,N-dimethylaminoethylthiol)brefeldin A]		1.4 µM	0.68 µM	10 mg/mL (≈ 25.9 mM)	0.39 µM	0.5 µM	2.4 µM	0.43 µM		0.75 µM	
CC1CCCC=CC2CC(O)CC2C(O)[C@H](CC(=O)O)CC(=O)O1 (stereo partly drawn) [Compound 6, 2,3-Dihydro-(3R)-(carboxymethyl)brefeldin A]	30 µM	39 µM	33 µM	40 mg/mL (≈ 118 mM)	34 µM	42 µM	38 µM	33 µM	30 µM	23 µM	
C[C@H]1CCC/C=C/[C@@H]2C[C@H](O)C[C@H]2[C@H](O)/C=C/C(=O)O1 [Compound 1, Brefeldin A]	0.032 µM	0.09 µM	0.041 µM and 0.040 µM	2.8 mg/mL (≈ 9.99 mM)	0.04 µM	0.041 µM	0.13 µM	0.022 µM	0.07 µM	0.029 µM	0.040 µM
C[C@H]1CCC/C=C/[C@@H]2C[C@H](O)C[C@H]2[C@@H](O)[C@H]([S+]([O-])CCN(C)C)CC(=O)O1 (stereo partly drawn) [Compound 20, 2,3-Dihydro-(3R)-[21-N,N-(dimethylamino)ethylsulfinyl]brefeldin A]	0.14 µM	0.15 µM	0.20 µM		0.3 µM	0.41 µM	0.48 µM	0.071 µM	0.35 µM	0.28 µM	
C[C@H]1CCC/C=C/[C@@H]2C[C@H](O)C[C@H]2[C@H](O)[C@@H](SC[C@H](N)C(=O)O)CC(=O)O1 [Compound 11, 2,3-Dihydro-(3R)-(S-L-cysteinyl)brefeldin A]				35 mg/mL (≈ 87.2 mM)							
